The source of these data is PMC7099768, “A positron emission tomography imaging study to confirm target engagement in the lungs of patients with idiopathic pulmonary fibrosis following a single dose of a novel inhaled αvβ6 integrin inhibitor” (Respiratory Research, 2020).

The conditions of data set [1]: single doses up to 3000 mcg; cited from earlier work.

Take `Cc1cc(C)n(-c2cccc([C@H](CC(=O)O)CN3CC[C@@H](CCc4ccc5c(n4)NCCC5)C3)c2)n1` [GSK3008348, (S)-3-(3-(3,5-Dimethyl-1 H-pyrazol-1-yl)phenyl)-4-((R)-3-(2-(5,6,7,8-tetrahydro-1,8-naphthyridin-2-yl)ethyl)pyrrolidin-1-yl) butanoic acid]: where the note is “1000 mcg nebulised, N=5”, the “Diarrhoea, n (%)” value is given as 0 n (%); the “Headache, n (%)” value is reported as 1 (20) n (%); the “Number of participants with any AE, n (%)” value is on record as 3 (60) n (%); the “Urinary tract infection, n (%)” value was 1 (20) n (%). The “Intensity and treatment relation of AEs” value (single nebulised 1000 mcg doses) was “All AEs were mild in intensity and none were considered treatment related”. Further, in data set [1], the “Tolerability in healthy participants” value was “well tolerated”.
